Data from US6355673B1, “Substituted diaminocarboxylic acids” (Aventis Pharma Deutschland GmbH, priority 1997, dated 2002).

Legend:
[1] = target: T1, stromelysin (MMP-3) (Homo sapiens, UniProt P08254); test: Enzyme inhibition of the catalytic domain of human stromelysin (fluorogenic substrate); type: biochemical; conditions: 15 min preincubation, pH=6.5, fluorescence 328 nm (ex)/393 nm (em)
T1 construct: enzymatic activity of the catalytic domains of human stromelysin and of neutrophil collagenase; made in house
T1 sequence (P08254 100-272 limits assumed): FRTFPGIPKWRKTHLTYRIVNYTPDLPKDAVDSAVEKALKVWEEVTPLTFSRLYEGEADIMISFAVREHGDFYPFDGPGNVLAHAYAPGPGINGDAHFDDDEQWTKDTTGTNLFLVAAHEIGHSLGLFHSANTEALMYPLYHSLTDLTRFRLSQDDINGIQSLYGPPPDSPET
Description: (§1) Preparation and determination of the enzymatic activity of the catalytic domains of human stromelysin and of neutrophil collagenase.
(§2) The enzymes stromelysin (MMP-3) and neutrophil collagenase (MMP-8) were prepared according to Ye et al. (Biochemistry; 31 (1992) pages 11231-11235). To measure the enzyme activity or the enzyme inhibitor action, 70 μl of buffer solution and 10 μl of enzyme solution are incubated for 15 min with 10 μl of a 10% strength (v/v) aqueous dimethyl sulfoxide solution, which optionally contains the enzyme inhibitor. After addition of 10 μl of a 10% strength (v/v) aqueous dimethyl sulfoxide solution which contains 1 mil/L of the substrates, the enzyme reaction is monitored by fluorescence spectroscopy (328 nm (ex)/393 nm(em)). The enzyme activity is shown as the extinction increase/min. The IC50 values listed in Table 2 are determined as those inhibitor concentrations which in each case lead to a 50% inhibition of the enzyme.
(§3) The buffer solution contains 0.05% Brij (Sigma, Deisenhofen, Germany) and also 0.1 mol/L tris/HCl, 0.1 mol/L NaCl, 0.01 mol/L CaCl2 and 0.1 mol/L piperazine-N,N′-bis(2-ethanesulfonic acid) (pH=6.5). The enzyme solution contains 5 μg/ml of one of the enzyme domains prepared according to Ye et al. The substrate solution contains 1 mil/L of the fluorogenic substrate (7-methoxycoumarin-4-yl)acetyl-Pro-Leu-Gly-Leu-3-(2′,4′-dinitrophenyl)-L-2,3-diaminopropionyl-Ala-Arg-NH2 (Bachem, Heidelberg, Germany).

[2] = target: T2, neutrophil collagenase (MMP-8) (Homo sapiens, UniProt P22894); test: Enzyme inhibition of the catalytic domain of neutrophil collagenase (fluorogenic substrate); type: biochemical; conditions: 15 min preincubation, pH=6.5, fluorescence 328 nm (ex)/393 nm (em)
T2 construct: enzymatic activity of the catalytic domains of human stromelysin and of neutrophil collagenase; made in house
T2 sequence (P22894 100-262 limits assumed): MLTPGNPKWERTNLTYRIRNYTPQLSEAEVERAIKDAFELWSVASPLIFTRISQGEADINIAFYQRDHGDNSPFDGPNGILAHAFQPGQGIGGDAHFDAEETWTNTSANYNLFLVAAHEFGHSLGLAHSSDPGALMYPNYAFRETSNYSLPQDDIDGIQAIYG
Description: as §1, §2, §3

Row | SMILES | melting point [°C] | IC50 [1] [nM] | IC50 [2] [nM]
1 | O=C(O)C(CCN1C(=O)c2ccccc2C1=O)NS(=O)(=O)c1ccc(-c2ccccc2)cc1 (racemic) [Example 27] | 176 |  | 
2 | O=C(O)C(CCN1C(=O)c2ccccc2C1=O)NS(=O)(=O)c1ccc(-c2ccc(Cl)cc2)cc1 (racemic) [Example 29] | 238 | 6 | 3
3 | O=C(O)C(CCCN1C(=O)c2ccccc2C1=O)NS(=O)(=O)c1ccc(-c2ccccc2)cc1 (racemic) [Example 30] | 168 | 30 | 5
4 | O=C(O)C(CCCN1C(=O)c2ccccc2C1=O)NS(=O)(=O)c1ccc(-c2ccc(Cl)cc2)cc1 (racemic) [Example 31] | 132 | 5 | 2
5 | O=C(O)C(CCCCN1C(=O)c2ccccc2C1=O)NS(=O)(=O)c1ccc(-c2ccccc2)cc1 (racemic) [Example 33] | 181 |  | 
6 | O=C(O)[C@@H](CCCN1C(=O)c2ccccc2C1=O)NS(=O)(=O)c1ccc(-c2ccc(Cl)cc2)cc1 [Example 6, 2-(2R)-(4-Chlorobiphenylsulfonylamino)-5-phthalimidoyl-pentanoic acid] | 178 | 5 | 2
7 | COC(=O)[C@@H](CCCCNC(=O)OCc1ccccc1)NS(=O)(=O)c1ccc(-c2ccc(Cl)cc2)cc1 [Example 17] | 69 to 70 |  | 
8 | O=C(O)[C@H](CCN1C(=O)c2ccccc2C1=O)NS(=O)(=O)c1ccc(-c2ccccc2)cc1 [Example 28] | 167 | 40 | 6
9 | O=C(O)[C@H](CCCN1C(=O)c2ccccc2C1=O)NS(=O)(=O)c1ccc(-c2ccc(Cl)cc2)cc1 [Example 32] | 179 | 6 | 2
10 | O=C(O)[C@H](CCCN1Cc2ccccc2C1=O)NS(=O)(=O)c1ccc(-c2ccc(Cl)cc2)cc1 [Example 34] | 213 to 215 | 4 | 2
11 | O=C(O)[C@H](CCCN1Cc2ccccc2C1=O)NS(=O)(=O)c1ccc(Oc2ccc(Cl)cc2)cc1 [Example 68] | 223 to 225 |  | 
12 | O=C(/C=C/c1ccc(F)cc1)NCCC[C@H](NS(=O)(=O)c1ccc(-c2ccc(Cl)cc2)cc1)C(=O)O [Example 131] |  | 20 | 5
13 | O=C(/C=C/c1ccc(Cl)cc1)NCCC[C@H](NS(=O)(=O)c1ccc(-c2ccc(Cl)cc2)cc1)C(=O)O [Example 132] |  | 30 | 10
14 | O=C(CCc1ccccc1)NCCC[C@H](NS(=O)(=O)c1ccc(-c2ccc(Cl)cc2)cc1)C(=O)O [Example 133] |  | 5 | 2
15 | O=C(O)[C@H](CCCN1C(=O)c2ccccc2S1(=O)=O)NS(=O)(=O)c1ccc(-c2ccc(Cl)cc2)cc1 [Example 134] |  | 5 | 2
16 | N#Cc1ccccc1C(=O)NCCC[C@H](NS(=O)(=O)c1ccc(-c2ccc(Cl)cc2)cc1)C(=O)O [Example 135] |  | 30 | 8
17 | CN(C)c1ccc(C(=O)NCCC[C@H](NS(=O)(=O)c2ccc(-c3ccc(Cl)cc3)cc2)C(=O)O)cc1 [Example 136] |  | 10 | 7
18 | CN(C)c1ccccc1C(=O)NCCC[C@H](NS(=O)(=O)c1ccc(-c2ccc(Cl)cc2)cc1)C(=O)O [Example 137] |  | 20 | 7
19 | Cc1cc(C(=O)NCCC[C@H](NS(=O)(=O)c2ccc(-c3ccc(Cl)cc3)cc2)C(=O)O)ccc1[N+](=O)[O-] [Example 138] |  | 30 | 10
20 | COc1cccc(OC)c1C(=O)NCCC[C@H](NS(=O)(=O)c1ccc(-c2ccc(Cl)cc2)cc1)C(=O)O [Example 139] |  | 50 | 20
21 | O=C(/C=C/C1C=NC=N1)NCCC[C@H](NS(=O)(=O)c1ccc(-c2ccc(Cl)cc2)cc1)C(=O)O (stereo partly drawn) [Example 140] |  | 60 | 20

Row | SMILES | melting point [°C] | IC50 [1] [nM] | IC50 [2] [nM]
22 | O=C(NCCC[C@H](NS(=O)(=O)c1ccc(-c2ccc(Cl)cc2)cc1)C(=O)O)c1ccc2[nH]cnc2c1 [Example 141] |  | 10 | 10
23 | NS(=O)(=O)c1ccc(C(=O)NCCC[C@H](NS(=O)(=O)c2ccc(-c3ccc(Cl)cc3)cc2)C(=O)O)cc1 [Example 142] |  | 10 | 4
24 | O=C(O)[C@H](CCCNC(=O)N1CCCC1)NS(=O)(=O)c1ccc(-c2ccc(Cl)cc2)cc1 [Example 143] |  | 5 | 2
25 | CN(CCC[C@H](NS(=O)(=O)c1ccc(-c2ccc(Cl)cc2)cc1)C(=O)O)C(=O)C1CC1 [Example 144] |  | 10 | 3
26 | CN(CCC[C@H](NS(=O)(=O)c1ccc(-c2ccc(Cl)cc2)cc1)C(=O)O)Cc1ccccc1 [Example 145] |  | 10 | 5
27 | CC(C)(C)OC(=O)NCCC[C@H](NS(=O)(=O)c1ccc(-c2ccccc2)cc1)C(=O)O [Example 146] |  | 30 | 3
28 | COc1ccccc1C(=O)NCCC[C@H](NS(=O)(=O)c1ccc(-c2ccc(Cl)cc2)cc1)C(=O)O [Example 151] |  | 30 | 10
29 | COc1cccc(C(=O)NCCC[C@H](NS(=O)(=O)c2ccc(-c3ccc(Cl)cc3)cc2)C(=O)O)c1 [Example 152] |  | 60 | 10
30 | Cn1cccc1C(=O)NCCC[C@H](NS(=O)(=O)c1ccc(-c2ccc(Cl)cc2)cc1)C(=O)O [Example 154] |  | 30 | 9
31 | COc1cc(Cl)cc(C(=O)NCCC[C@H](NS(=O)(=O)c2ccc(-c3ccc(Cl)cc3)cc2)C(=O)O)c1 [Example 156] |  | 60 | 20
32 | O=C(CCCc1ccccc1)NCCC[C@H](NS(=O)(=O)c1ccc(-c2ccc(Cl)cc2)cc1)C(=O)O [Example 157] |  | 40 | 7
33 | O=C(O)[C@H](CCCN1C(=O)C2CSCN2C1=O)NS(=O)(=O)c1ccc(-c2ccc(Cl)cc2)cc1 (stereo partly drawn) [Example 158] |  | 7 | 2
34 | O=C(NCCC[C@H](NS(=O)(=O)c1ccc(-c2ccccc2)cc1)C(=O)O)c1ccccc1Cl [Example 160] |  | 70 | 10
35 | O=C(NCCC[C@H](NS(=O)(=O)c1ccc(-c2ccccc2)cc1)C(=O)O)C1CC1 [Example 161] |  | 40 | 4
36 | O=C(NCCC[C@H](NS(=O)(=O)c1ccc(-c2ccc(Cl)cc2)cc1)C(=O)O)c1cc(Cl)ccc1O [Example 162] |  | 50 | 6
37 | Cc1oncc1C(=O)NCCCC[C@@H](NS(=O)(=O)CCc1ccc(-c2ccccc2)cc1)C(=O)O [Example 168] |  | 40 | 20
38 | Cc1cc(C)nc(NCCC[C@H](NS(=O)(=O)c2ccc(-c3ccccc3)cc2)C(=O)O)n1 [Example 169] | 226 to 227 |  | 
39 | Cc1cc(C)nc(NCCC[C@H](NS(=O)(=O)c2ccc(-c3ccc(Cl)cc3)cc2)C(=O)O)n1 [Example 170] | 177 to 179 | 20 | 10
40 | O=C(O)[C@H](CCCN1C(=O)c2ccc(Cl)cc2C1=O)NS(=O)(=O)c1ccc(-c2ccc(Cl)cc2)cc1 [Example 171] |  | 30 | 10
41 | CC(C)(C)OC(=O)NCCC[C@H](NS(=O)(=O)c1ccc(Oc2ccc(Cl)cc2)cc1)C(=O)O [Example 172] | 131 to 133 |  | 
